The test system of one data set is ERK1/2. The data set is described as follows: Western blot, ERK1/2 phosphorylation in VEGF stimulated HUVEC. It counts as cell-based, human. The conditions noted are these: 1 mM on a peptide basis, vs VEGF stimulated controls. How it is done: (§1) Cells were treated with D-ALG1001 and ALG-1001 for 24 h before activation with VEGF for 5 minutes. […] Cells were lysed with TRIZOL® and processed as previously described for qPCR analysis.
(§2) Concentration of protein was determined with the BCA protein assay kit (Thermo Scientific, Rockford, IL). Equal amount of protein was denatured and resolved on 4-15% TGX gels (Bio-Rad, Hercules, CA). Gels were transferred to nitrocellulose membranes, blocked with 3% Bovine Serum Albumin (“BSA”) at RT for 1 h, and probed for GAPDH, FAK, pFAK, MAPK, and pMAPK at 4° C. overnight. Membranes were washed thrice before incubation with HRP-conjugated secondary antibodies followed by incubation with chemiluminescent substrate for visualization.
(§3) To elucidate the mechanism through which D-ALG and ALG-1001 influence angiogenic function, cells were pre-treated with D-ALG and ALG-1001 for 24 h. The cells were then stimulated with a high dose of exogenous VEGF for 5 min after which the samples were collected for western blotting. The samples were probed for expression of total FAK, phospho-FAK (Y397), ERK1/2, phospho-ERK1/2, and Cyclophilin B (CycB) with CycB acting as the internal control.
On the technique in general: Immunoblotting shows a protein as a band on a membrane.

For another data set, the system named is CNV area. Description: Biodistribution after systemic administration, laser CNV model. It counts as in vivo, Brown Norway rats. The note with it: systemic (intraperitoneal) administration, 150 μg. As for the experimental part: For biodistribution studies, a dose of Cy5-D-ALG1001-Cy3 and ALG-1001-Cy3 at 150 μg/100 μL was administered to each animal intraperitoneally on the day of CNV induction (Day 0). Animals were sacrificed at 1-, 2-, 3-, and 4-day time points and enucleated.
After fixation, the posterior segment of the eye was dissected out and the retina separated from the choroid. Tissues stained with FITC-labeled isolectin (GS IB4) (Life Technologies, Eugene, OR) for blood vessels and monocytes. Eyes were mounted by introducing four radial relaxation cuts. Samples for biodistribution were imaged under a confocal 710 microscope (Carl Zeiss, Oberkochen, Germany). Samples for CNV quantification were imaged with an Axiovert phase contrast microscope. All images were processed with ImageJ.
Fluorescently labeled Cy3-ALG-1001 peptide and dual labeled Cy5-dendrimer-ALG-Cy3 were systemically injected on day 0 (same day as CNV induction) and choroidal tissues were collected at set time points. Confocal microscopy was used to monitor the presence of ALG-1001 peptide (Cy3), dendrimer carrier (Cy5), CNV formation (Isolectin), and macrophages (Iba1). […] In comparison, D-ALG was able to not only reach the CNV area within 24 h after systemic injection but also remain in the target area up to 4 days post administration from the co-localized presence of both Cy5 and Cy3 signals.

The subject of data set [1] is FAK. The data set is described as follows: Choroid total FAK and phospho-FAK (Y397) ELISA. It counts as in vivo, Brown Norway rats. How it is done: (§4) In brief, 500 μL of T-Per supplemented with PHOSSTOP® and proteinase inhibitor cocktail was added to tubes containing dissected choroid. A scoop of 1.6 mm steel homogenization beads was added to each sample and then placed in […]® LT (Qiagen) at an oscillation frequency of 50/s for 15 minutes. For qPCR, 200 μL of TRIZOL® was added to tubes containing choroid and a scoop of 1.6 mm steel homogenization beads was added. The samples were placed in […]® LT at an oscillation frequency of 50/s for 15 minutes.
For protein extracted from tissues, total FAK and FAK (Phospho) [pY397] ELISA kits (Invitrogen) were used to quantify the level of protein expression and the measured protein expression was normalized to the total protein amount of each sample as determined from BCA assays.
To evaluate activation of FAK and ERK pathways, eyes were enucleated at set time points and the choroidal tissue dissected out. Tissues were submerged in a mixture of T-per, proteinase inhibitor, and PhosStop with stainless steel homogenization beads and homogenized to produce protein extracts. Total FAK, total ERK, p-FAK (Y397), and p-44/42 ERK ELISA kits were used to quantify the amount of total and phosphorylated proteins in FAK and ERK pathways. […] However, the level of total FAK protein in ALG-1001 treated animals was elevated at day 14.
A general note: An ELISA detects its analyte on a solid surface through an enzyme-linked reagent.

Another data set deals with IL1β. Description: Choroid IL1β qPCR. It counts as in vivo, Brown Norway rats. The conditions noted are these: 7 and 14 days. How it is done:
as §4
100 μL of chloroform was added to the Trizol suspension and the aqueous phase was separated with a centrifuge at 10K RPM at 4° C. for 15 minutes. 400 μL of 2-propanol was added to the aqueous solution and spun again to pellet the RNA. The RNA was washed with 70% ethanol solution, pelleted again, and re-suspended in DEPC (ultrapure treated to inactivated enzymes) water.
To convert RNA to complementary DNA, 2 μg of RNA was converted using a High-Capacity cDNA Reverse Transcription Kit (Applied Biosystems, Foster City, CA). Samples were analyzed using STEPONE PLUS® real-time PCR system (Applied Biosystems) with SYBR Green reagent (ThermoFisher Scientific). Relative expression was quantified with ΔΔCt calculations normalized to controls. Primers for GAPDH was obtained from Bio-Rad Laboratories (Hercules, CA). Primers were purchased from Integrated DNA Technologies (Coralville, IA). […]

The test system of another data set is HUVEC cells. The data set is described as follows: HUVEC vessel formation assay on Matrigel. It counts as cell-based, human. The conditions noted are these: 1 mM. How it is done:
96 well plates were coated with 75 μL of […]® and left at room temperature for 15 minutes before placing into 37° C. incubators for an additional 30 minutes. D-ALG1001 was dissolved at twice the desired concentration and 50 μL of the drug solution was added to the wells. HUVEC cells were then added to each well at a density of 70,000 cells/cm^2. Live-cell images were taken at 12 h for analysis.
To find the effective dose in a physiologically relevant model, an in vitro model of blood vessel formation was utilized. HUVEC cells were treated with a gradient concentration of D-ALG and ALG-1001 for 24 h at three different magnitudes of doses. The cells were then seeded on […]® after which cells naturally migrate to form blood vessel-like tubule structures. The images were analyzed with Angiogenesis Analyzer plug-in on ImageJ to extract relevant metrics that measure the connectivity and integrity of tube networks (FIG. 16).

In data set [2] the test system is FAK. Description: Western blot, FAK and phospho-FAK in VEGF stimulated HUVEC. It counts as cell-based, human. As for the experimental part:
as §1, §2, §3

This note sets out measurements from US20250135012A1, “DENDRIMER CONJUGATES OF SMALL MOLECULE BIOLOGICS FOR INTRACELLULAR DELIVERY” (The Johns Hopkins University, priority 2021, published 2025).

The structures appear in SMILES notation. Non-standard residues stand in square brackets, D forms with d. Residues, ends and D or L forms follow the SMILES beside them. Cya = N[C@@H](CS(=O)(=O)O)C(=O)O

On to `C[C@@H](O)[C@H](NC(=O)[C@H](CS(=O)(=O)O)NC(=O)CNC(=O)[C@H](CCCNC(=N)N)NC(=O)CN)C(=O)N1CCC[C@H]1C(=O)O` [ALG-1001] (H-GRG[Cya]TP-OH; N-terminus and C-terminus assumed), for which the “reduction of phospho-ERK1/2” value in the data set on ERK1/2 is given as about 60%. In the data set on CNV area, the “time remaining in the CNV target area” value is listed as “up to 2 days”. In addition, the p-FAK protein entry in the data set on FAK [1] (7 and 14 days) is on record as “reduction of p-FAK”. In the data set with FAK [1] (day 14), the “total FAK protein” value was “elevated”. In addition, the “IL1β expression (qPCR)” value with IL1β is “only reduced at day 14”. The tube formation entry with HUVEC cells was “increased disruption in tube formation”. The “reduction of phospho-FAK” value in the data set on FAK [2] (1 mM on a peptide basis, vs VEGF stimulated controls) came to 20%. The “total FAK and phospho-FAK expression” value in the data set on FAK [2] (vs untreated VEGF stimulated controls) is “lower levels of total FAK and phosphor-FAK”.
